Measured values as given in patent US20250170137A1, “Compositions for preventing or treating heart failure (HF)” (CHONG KUN DANG PHARMACEUTICAL CORP., priority 2022, published 2025).

Key:
[1] = tested on: acetyl tubulin in H9c2 cells; assay: Effect on acetyl tubulin in H9c2 cells (western blot); type: cell-based, Rat; conditions: treated for each concentration, four hours at 37° C., western blot vs GAPDH (FIGS. 1 and 2)
Protocol: H9c2 (2.0×10^5 cells/well, Rat, heart, myoblast) cells were seeded in a six-well plate and treated with drugs (compounds 43, 295, 296, 40, 239, and 285) for each concentration. In four hours later at 37° C., proteins were extracted with lysis buffer and quantified by Bradford method. […] of proteins were dissolved in sample buffer, electrophoresed on 4-12% gradient gel, transferred to a nitrocellulose membrane for seven minutes, and blocked in 3% BSA solution for one hour. Anti-acetyl tubulin (1:1,000) and GAPDH (1:2,000) were added to a 3% BSA solution, after which the membrane was immersed therein and reacted at 4° C. for 10 hours, and then washed three times with 1×TBST for 10 minutes each. IgG-HRP antibody (1:5,000) was added to 5% BSA, after which the membrane was immersed therein and reacted at room temperature for one hour, and then washed three times with 1×TBST for 10 minutes each.

[2] = tested on: isolated heart of normal rabbits; assay: Langendorff evaluation of heart safety (Q-T interval of ECG); parameters: species or system Rabbit; conditions: for Q-T interval: normal rabbit heart, ECG 30 minutes later, n = 6, mean ± standard error; for effect on QT interval compared to normal ECG (in words): dofetilide 0.3 μM and 1 μM, compound 43 1 μM (FIGS. 5 and 6)
Protocol: (§1) The male rabbits were anesthetized by breathing, and the hearts were removed therefrom. After removing the connective tissues, the hearts were perfused with 37° C. physiological solution (modified KrebsHenseleit bicarbonate buffer; composition: 116 mM/L NaCl, 4.7 mM/L KCl, 1.1 mM/L MgSO4, 1.17 mM/L KH2PO4, 24.9 mM/L NaHCO3, 2.52 mM/L CaCl2), 8.32 mM/L glucose) saturated with 95% O2/5% CO2 under constant pressure perfusion, and electrodes were connected at the atrium and ventricle so as to confirm a stabilization state by measuring an electrocardiogram for one hour.
After confirming the stabilization state of the heart through the electrocardiogram for one hour, the compound was administered to the physiological solution, and the electrocardiogram was measured in 30 minutes later so as to analyze the Q-T interval.
Using dofetilide as a control drug, the effect of the compound according to the present disclosure (compound 43: compound of Synthesis Example 1) on the QT interval of ECG was confirmed in normal rabbits.
Rabbits were prepared under the same conditions as in 1) and divided into a normal group, a dofetilide-treated group, and a compound 43-treated group, after which the hearts of the rabbits were extracted according to the Langendorff experimental method in 2-2), so as to analyze the Q-T interval according to 2-3), and the results thereof are shown in FIGS. 5 and 6 and in Tables 2 and 3 below. In above FIGS. 5 and 6 and Tables 2 and 3, the Control may refer to a normal group, and all data values in Tables 2 and 3 are expressed as mean standard error.

[3] = tested on: beagle dogs with induced heart disease; assay: Anti-fibrotic activity in tachycardia pacing heart disease model (western blot of cardiac tissue); type: in vivo, beagle dog; conditions: 1 mg/kg capsule, Bid, P.O.; tachycardia pacing 400 bpm; compared to group not dosed (FIG. 7)
Protocol: For the introduction of anesthetic to the beagle dogs (male, 11 months old), pentobarbital (25 mg/kg) was intravenously administered thereto, and anesthesia was maintained through Isoflurane. A pacemaker's in vivo implantable electrode (bipolar pacing lead, Medtronic, IRE) was placed in the right atrial appendage by using C-arm (ARCADIS Varic, SIEMENS Co.) equipment and vascular contrast media, and then it was checked if the same was correctly inserted through a contrast image, and then the pacemaker's lead was fixed in the right atrial appendage. After stabilization for one week after surgery, the pacemaker was operated at 400 bpm to confirm normal induction by electrocardiography, and then tachycardia pacing was induced. Hemodynamic parameters for each group were measured. […]
In order to confirm the effect of the compound according to the present disclosure on preventing or treating heart failure disease, the expression of α-SMA and TGF-β, which are directly related to fibrosis in cardiac tissues, was analyzed. […] The expression of α-SMA and TGF-β was analyzed for each protein through western blot, so as to compare the degree of cardiac fibrosis between groups, and the results thereof are shown in FIG. 7.

isolated rabbit heart = assay: Langendorff evaluation of ventricular functions in heart damage mimicking conditions (Tachycardia pacing)
From the text: The Langendorff test method was used to evaluate the therapeutic effect of the compound on heart damage. The Langendorff test method is known as a test method that helps to determine the direct effect of the compound on the heart in terms of efficacy and safety. In particular, the method is easy to measure actual cardiac contractility and heart rates by removing peripheral hemodynamic variables that may extracardially interfere in experimental animals, and has the advantage of being able to intensively investigate a correlation between chemical structure and pharmacological action using various doses of the compound.
as §1
After confirming the stabilization state of the heart for one hour through an electrocardiogram, a heart damage stimulation with 50 Hz tachycardia pacing was applied for 30 minutes. After measuring the electrocardiogram of the atrium and ventricle, a test target compound (compound 43: the compound of […]) was administered to physiological solution, and the electrocardiogram was measured in one hour later. In order to check whether a drug effect is maintained even after the compound is removed from the physiological solution, the physiological solution containing the compound, in which the rabbit heart was immersed, was washed out, and the physiological solution without the compound was administered, so as to measure the electrocardiogram in one hour later.
The effect of the compound on improving ventricular functions was analyzed in ex vivo heart damage mimicking conditions (Tachycardia pacing), and the results thereof are shown in FIGS. 3 and 4 and Table 1. In above FIG. 4, ** on the graph may refer to P<0.01 when compared with the normal group(Sham), and ## may mean P<0.01 when compared with Tachycardia pacing (Comparative group, vehicle).

[4] = tested on: acetylated tubulin in atrial and ventricular tissues; assay: Acetylated tubulin in atrial and ventricular tissues in heart damage mimicking conditions (Tachycardia pacing); parameters: species or system Rabbit; conditions: compound in physiological solution, western blot, compared to vehicle (FIGS. 10 and 11)
Protocol: Male rabbits were prepared in the same manner as in Example 1, and the rabbits were divided into a normal group (Sham), a drug-untreated group (vehicle), and a drug-treated group (Compound).
After that, the heart was evaluated by the Langendorff experimental method as in 2-1) of 2) in Example 2. For the drug-treated group, the heart was treated with the drug by administering compound 43 (compound according to Synthesis Example 1) to physiological solution as in 2-2) of 2) in Example 2.
Then, the atria and the ventricles were separated, and then proteins were isolated from each tissue. The expression of acetylated tubulin was analyzed for each protein through western blot, so as to compare the expression levels between groups, and the results thereof are shown in FIGS. 10 and 11. * may mean P<0.05, ** may refer to P<0.01, and *** may represent less than P<0.001.

[5] = tested on: iPSC-CM myocardial cells derived from patients with dilated cardiomyopathy (DCMP) heart failure; assay: Ca2+ transient activity in DCMP iPSC-CM accompanied by TPM1 mutation; type: cell-based, human; conditions: 0.1-3 μM for 24 hours, 3 Hz stimulation 24 hours, Fluo-4 (FIG. 9)
Protocol: In order to confirm the effect of the compound according to the present disclosure on preventing or treating heart failure disease, Ca^2+ transients in iPSC-CM myocardial cells derived from patients with dilated cardiomyopathy (DCMP) heart failure were analyzed.
Myocardial cells derived from patients with heart failure were treated with compound 43 (Synthesis Example 1) for each concentration for 24 hours. After that, 3 Hz stimulation was given to both iPSC-CM myocardial cells derived from normal people (normal group, Normal) and iPSC-CM myocardial cells derived from patients with dilated cardiomyopathy (DCMP) heart failure for 24 hours in heart damage mimicking conditions (Tachycardia pacing). After each group was treated with Fluo-4 (AM, cell permeant-Thermo Fisher Scientific), a cell-permeable calcium dye, Ca^2+ images were taken in real time with a confocal microscope, so as to compare and analyze Ca^2+ transients between groups. Then, the results of the cells obtained from normal people are shown in FIG. 8, while the results of the cells obtained from patients with DCMP heart failure are shown in FIG. 9. Normal in above FIG. 8 may refer to myocardial cells not treated with Tachycardia pacing, and 0, 0.1, 1 and 3 in FIGS. 8 and 9 may represent the concentrations of compound 43 (compound of Synthesis Example 1) in cells treated with Tachycardia pacing. […]

O=C(N1CCS(=O)(=O)CC1)N(Cc1ccc(-c2nnc(C(F)F)o2)cc1F)c1ccccc1 [Compound 40, N-(4-(5-(difluoromethyl)-1,3,4-oxadiazol-2-yl)-2-fluorobenzyl)-N-phenylthiomorpholine-4-carboxamide 1,1-dioxide]
concentration of acetyl tubulin in H9c2 cells [1]: increase the concentration of acetyl tubulin in H9c2 cells in a concentration-correlated manner

O=C(N1CCS(=O)(=O)CC1)N(Cc1ccc(-c2nnc(C(F)F)o2)cn1)c1cccc(Cl)c1 [Compound 239, N-(3-chlorophenyl)-N-((5-(5-(difluoromethyl)-1,3,4-oxadiazol-2-yl)pyridin-2-yl)methyl)thiomorpholine-4-carboxamide 1,1-dioxide]
concentration of acetyl tubulin in H9c2 cells [1]: increase the concentration of acetyl tubulin in H9c2 cells in a concentration-correlated manner

O=C(N1CCS(=O)(=O)CC1)N(Cc1ccc(-c2nnc(C(F)F)o2)cc1F)c1ccc(F)cc1 [Compound 285, N-(4-(5-(difluoromethyl)-1,3,4-oxadiazol-2-yl)-2-fluorobenzyl)-N-(4-fluorophenyl)thiomorpholine-4-carboxamide 1,1-dioxide]
concentration of acetyl tubulin in H9c2 cells [1]: increase the concentration of acetyl tubulin in H9c2 cells in a concentration-correlated manner

O=C(N1CCS(=O)(=O)CC1)N(Cc1ccc(-c2nnc(C(F)F)o2)cn1)c1ccc(F)cc1 [Compound 295, N-((5-(5-(difluoromethyl)-1,3,4-oxadiazol-2-yl)pyridin-2-yl)methyl)-N-(4-fluorophenyl)thiomorpholine-4-carboxamide 1,1-dioxide]
concentration of acetyl tubulin in H9c2 cells [1]: increase the concentration of acetyl tubulin in H9c2 cells in a concentration-correlated manner

O=C(N1CCS(=O)(=O)CC1)N(Cc1ccc(-c2nnc(C(F)F)o2)cn1)c1cccc(F)c1 [Compound 296, N-((5-(5-(difluoromethyl)-1,3,4-oxadiazol-2-yl)pyridin-2-yl)methyl)-N-(3-fluorophenyl)thiomorpholine-4-carboxamide 1,1-dioxide]
concentration of acetyl tubulin in H9c2 cells [1]: increase the concentration of acetyl tubulin in H9c2 cells in a concentration-correlated manner

CN(CCOc1ccc(NS(C)(=O)=O)cc1)CCc1ccc(NS(C)(=O)=O)cc1 [Dofetilide, dofetilide]
Q-T interval ([2]; 0.3 μM): 199.2 ± 17.8 ms
Q-T interval ([2]; 1 μM): 205.4 ± 26.3 ms
effect on QT interval compared to normal ECG (in words) [2]: increased at both 0.3 μM and 1 μM

O=C(N1CCS(=O)(=O)CC1)N(Cc1ccc(-c2nnc(C(F)F)o2)cn1)c1ccccc1 [compound 43, N-((5-(5-(difluoromethyl)-1,3,4-oxadiazol-2-yl)pyridin-2-yl)methyl)-N-phenylthiomorpholine-4-carboxamide 1,1-dioxide]
Q-T interval ([2]; 1 μM): 125.4 ± 1.7 ms
effect on QT interval compared to normal ECG (in words) [2]: not affected
expression of TGF-β in cardiac tissue [3]: reduced expression
expression of α-SMA in cardiac tissue [3]: reduced expression
R-R interval, Average (isolated rabbit heart; 1 μM in physiological solution, ECG one hour later, after 50 Hz tachycardia pacing for 30 minutes): 240.8 ms
electrocardiogram (ventricular functions) (isolated rabbit heart; 1 μM, tachycardia pacing (FIG. 3)): improved to a degree of the normal group (Control)
cardioversion effect after the compound is removed (isolated rabbit heart; after wash out of 1 μM compound (FIG. 3)): maintained for at least one hour
R-R interval, Average, Wash out (isolated rabbit heart; one hour after compound washed out of physiological solution, after 50 Hz tachycardia pacing): 239.9 ms
concentration of acetyl tubulin in H9c2 cells [1]: increase the concentration of acetyl tubulin in H9c2 cells in a concentration-correlated manner
expression of acetylated tubulin in atria and ventricles [4]: restored to that of the normal group (Sham)
Ca2+ transients [5]: Ca^2+ transients are recovered
